Measurements reported in US20070117182A1, “Nucleic acids conferring transcriptional responsiveness on the RANKL gene promoter and uses thereof” (Wisconsin Alumni Research Foundation, priority 2005, published 2007).

Legend:
Type in all cases: cell-based, mouse
[1] = system: D5 region of the RANKL gene (RL-CCL); test: pTK-RL(D5) luciferase reporter in ST2 cells; settings: 24 hours; for luciferase activity via D5 (RL-CCL), TK promoter: agent alone
Method: FIG. 6. Transcriptional activity of the D5 regions of the RANKL gene in the context of the TK promoter. Sequence surrounding the D5 region (1072 bp) was cloned into the pTK-luciferase vector and termed pTK-RL(D5). […] Cells were harvested after 24 hours and luciferase activity assessed. B) ST2 cells were transfected as in A above but without the VDR expression vector and evaluated as in A. C) COS-7 cells were transfected and evaluated as in A above. Luciferase was normalized using beta-gal activity. Data represent the mean of triplicate determinations (SEM). The pTK-luc control vector was unresponsive to any of the inducers (see FIG. 9). *, p<0.05 vs no treatment control.
FIG. 11. […] A) Coordinates of the RL-D5 and the RL-D5b regions in the mouse RANKL upstream region. ST2 cells were transfected with either B) pTK-luc or pTK-mRL-D5 or C) pTK-luc and pTK-mRL-D5b and then treated with the indicated inducers. Cells were harvested after 24 hours and evaluated for luciferase activity. Luciferase was normalized using β-gal activity. Data represent the mean of triplicate determinations (SEM). *, p<0.05 vs no treatment control. **, p<0.05 vs no treatment and 1,25(OH)2D3 treated controls.
The activity of an enhancer must be evaluated in the context of its local environment, preferentially in the context of both other enhancers and its native promoter. In the case of the RANKL gene, however, this is clearly not possible due to the numbers and the distant locations of the potential regulatory regions. To tackle this problem, the inventors isolated approximately 800 to 1100 bp fragments of each region (D1 to D5) as identified through the ChIP/Chip analysis, cloned each into a luciferase expression vector under the control of a viral thymidine kinase (TK) minimal promoter, and explored the 1,25(OH)2D3- and GC-inducible activity of each following transfection into ST2 cells. […] Nevertheless, positive results provide added support for the potential regulatory capabilities of an individual DNA fragment even when examined in isolation. […] This induction was magnified by the addition of a VDR expression vector (FIG. 6a), but was also evident in the absence of such addition (FIG. 6b). […] To ensure that the viral TK promoter background was not contributing to our evaluation, the inventors cloned the mouse RANKL promoter (−100 to +65) into pGL3, inserted RL D5 and evaluated its activity in ST2 cells as well.
Based upon the above data, the inventors explored the possibility that similar to 1,25(OH)2D3, forskolin, PGE2 and OSM might be capable of activating transcription via the D5 fragment of the RANKL gene. […] Cells were harvested 24 hours later and evaluated for luciferase activity as in the previous experiments. […]

[2] = system: RANKL; test: RT-PCR of RANKL transcripts in treated ST2 cells; settings: treated up to 24 hours, agent alone, vs beta-actin controls
Method: FIG. 2. Induction of RANKL in ST2 cells by hormones and cytokines. ST2 cells were treated with the agents indicated for periods up to 24 hours. Total RNA was isolated and subjected to RT-PCR using a primer set to mouse RANKL and beta-actin. Positive vitamin D target control genes include Cyp24 and osteopontin (OPN).
The inventors first established a model in which RANKL is both induced in response to 1,25(OH)2D3, PTH (forskolin) and oncostatin M (OSM), and is capable of supporting osteoclast formation when co-cultured with bone marrow monocyte- or spleen cell-derived osteoclast precursors. While a number of cell types express RANKL and induce osteoclastogenesis, the historical literature strongly supports mouse ST2 cells in this capacity, prompting the inventors to focus on this stromal/preosteoblastic line for initial studies. […] Each of these components is known to both induce RANKL expression and promote osteoclast formation as well. […] Indeed, GC effects are widely observed. […] The ability of GCs to enhance osteoclast formation in coculture assays in the presence of 1,25(OH)2D3, however, is likely due also to its coordinate ability to suppress OPG.

[3] = system: RANKL gene upstream regions D1-D5; test: ChIP analysis of transcription factor binding to the RANKL gene in ST2 cells; settings: 6 hours
Method: FIG. 4. Confirmation of ChIP/chip data using ChIP. A) Linear arrangement of RANKL locus re-oriented 5′ to 3′ (left to right) indicating the positions of D5 to D1, P2, and P1/TSS. Designation of primer sets used for detection in ChIP is indicated. B) ST2 cells were treated with either vehicle or 1,25(OH)2D3 and then subjected to ChIP using antibodies to VDR, RXR or IgG. Precipitated DNA was evaluated using the primer sets identified in A.
FIG. 5. […] ST2 cells were treated with the above hormones and after 6 hours subjected to ChIP analysis using antibodies to VDR, RXR, GR, C/EBP, β, RNA pol II, and IgG. Precipitated DNA was evaluated for enrichment of the indicated regions of the RANKL gene.
FIG. 10. ChIP analysis of transcription factor binding to RL D5, the TSS and intervening regions of the RANKL locus in response to 1,25(OH)2D3, forskolin and oncostatin M (OSM). ST2 cells were treated for 6 hr with the indicated inducing agents and then subjected to ChIP analysis using antibodies to the indicated factors. Precipitated DNA was analyzed by PCR for enrichment of IS7, D5, IS6 and the TSS of the RANKL gene locus. See text for details of results.
The isolated DNA was then evaluated by PCR using primers as depicted in the diagram seen in FIG. 4a which were designed to amplify small DNA segments within the 5 regions as well as segments located at intervening sites (IS) outside the five regions.
The inventors hypothesized that GC's might perhaps enhance VDR binding to RANKL regulatory regions. […] The inventors focused on the RL-CCL region (D5) and amplified the precipitated DNA using primers to this region of the gene as well as to D4, D3 and TSS and intervening regions. […] The inventors also explored the possibility that C/EBPbeta might similarly participate in the RANKL activation process. C/EBPbeta plays a significant role in the regulation of osteoblastic genes, and is found associated with both 1,25(OH)2D3 and GC target genes.
In addition to 1,25(OH)2D3 and GCs, RANKL expression is also known to be modulated by such factors as PTH, PGE2, the gp130-activating cytokines IL-6 and OSM, as well as IL-1beta and TNFalpha. […] Forskolin was used as substitute for PTH, however, as ST2 cells are deficient in PTH receptor (PTHR). Both PTH/forskolin and PGE2 are known to induce RANKL gene expression via CREB whereas OSM functions via Stat3. […] The inventors therefore explored the possibility that the RL-CCL might represent a focal target for these inducers via either CREB or Stat3 in the RANKL gene locus. ST2 cells were treated with either vehicle, 1,25(OH)2D3, forskolin or OSM for a 6 hour period and then subjected to a ChIP analysis using antibodies to VDR, C/EBPbeta, CREB, phospho-CREB, ATF-2, ATF-4, Stat3, RNA pol II and control IgG. Isolated DNA was then subjected to amplification using primers corresponding to the D5 region (RL-CCL) of the RANKL gene. As controls, the inventors also assessed the extent to which the immunoprecipitations led to the enrichment of DNA at sites surrounding the D5 region of the RANKL gene.

| Compound | luciferase activity via D5 (RL-CCL), TK promoter [1] | RANKL transcripts [2] | increase in transcriptional output via mRL-D5 ([1]; OSM 20 ng/ml) [fold] | CREB binding to the D5 region [3] | Stat3 binding to the D5 region [3] | VDR binding to RANKL regulatory regions (D5) ([3]; agent alone) |
| --- | --- | --- | --- | --- | --- | --- |
| CCCCC[C@H](O)/C=C/[C@H]1[C@H](O)CC(=O)[C@@H]1C/C=C\CCCC(=O)O [PGE2] | not forskolin or PGE2 | substantial time-dependent increase |  |  |  |  |
| IL-1beta: cytokine known to induce RANKL expression |  | substantial time-dependent increase |  |  |  |  |
| TNFalpha |  | substantial time-dependent increase |  |  |  |  |
| oncostatin M [OSM] | responsive | substantial time-dependent increase | 3 | modestly increased CREB association | induces significant binding of Stat3 | no effect on VDR binding |
